Results from patent publication US12251379B2, “Methods of inhibiting formation of alpha synuclein aggregates” (THE REGENTS OF THE UNIVERSITY OF CALIFORNIA, priority 2018, dated 2025).

Key:
sEH = sEH (Homo sapiens (Human), UniProt P34913); conditions: cited from earlier work
[1] = system: MPTP-induced neurotoxicity in the mouse SN; conditions: cited from earlier work
[2] = PTZ induced seizure model; Example 52 and FIG. 7 of WO 2015/148954; cited from earlier work
[3] = system: eicosanoids metabolites in the striatum; assay: Oxylipin profiling of striatum from MPTP-treated mice; format: in vivo, mouse; conditions: MPTP 10 mg/kg×3 IP, 7 days after injection; mean +/− SEM
Procedure: Oxylipin profiling. […] Striatum was dissected from brain, and the samples were stored at −80° C. before assay. Measurement of eicosanoids was performed using the previous method (59).

[4] = system: ER stress, oxidative stress, sEH and α-synuclein proteins in the mouse striatum; assay: Western blot analysis of mouse striatum after MPTP; format: in vivo
Procedure: Western blot analysis of mouse brain samples. Western blot analysis was performed as reported previously (53,56). Mice were killed by cervical dislocation and brains were rapidly removed from the skull, and the striatum of mice were dissected on ice. The tissue samples were homogenized in Laemmli lysis buffer. […] Proteins were transferred onto polyvinylidenedifluoride (PVDF) membranes using a Trans Blot Mini Cell (Bio-Rad). For immunodetection, the blots were blocked with 2% BSA in TBST (TBS+0.1% Tween-20) for 1 h at room temperature (RT), and kept with primary antibodies overnight at 4° C. […] After final three washes with TBST, bands were detected using enhanced chemiluminescence (ECL) plus the Western Blotting Detection system (GE Healthcare Bioscience). Images were captured with a ChemDoc imaging system (Bio-Rad), and the immunoreactive bands were analysis by Image Lab software.

[5] = system: MPTP-induced neurotoxicity in the striatum and SN; assay: MPTP-induced mouse model of PD: immunohistochemistry of DAT and TH; conditions: MPTP 10, 15, or 20 mg/kg ×3 IP, 2-h intervals; 7 days after injection
[6] = pH 7.4; cited from earlier work

Chain of sEH (P34913 whole entry): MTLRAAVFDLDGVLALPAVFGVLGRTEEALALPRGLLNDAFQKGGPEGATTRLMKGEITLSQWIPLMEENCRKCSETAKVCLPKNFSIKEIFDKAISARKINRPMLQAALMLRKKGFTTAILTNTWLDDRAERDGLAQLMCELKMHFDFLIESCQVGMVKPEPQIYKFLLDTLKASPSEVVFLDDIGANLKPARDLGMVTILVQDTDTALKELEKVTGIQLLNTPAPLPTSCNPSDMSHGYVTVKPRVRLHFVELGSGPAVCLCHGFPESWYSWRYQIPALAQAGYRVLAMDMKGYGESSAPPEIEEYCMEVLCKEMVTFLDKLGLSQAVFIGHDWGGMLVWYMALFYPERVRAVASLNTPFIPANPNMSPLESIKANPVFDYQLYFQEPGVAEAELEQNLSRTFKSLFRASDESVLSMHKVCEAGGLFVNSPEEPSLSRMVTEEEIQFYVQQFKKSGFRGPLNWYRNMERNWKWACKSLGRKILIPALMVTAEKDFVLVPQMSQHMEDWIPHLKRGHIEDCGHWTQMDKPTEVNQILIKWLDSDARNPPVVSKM

For CCCCCCCCCCCCNC(=O)NC12CC3CC(CC(C3)C1)C2 [ADU, N-Adamantyl-N′-dodecyl urea], the “activity on sEH” value (sEH) is given as “particularly high activity”.
For O=C(O)CCCCCCCCCCCNC(=O)NC12CC3CC(CC(C3)C1)C2 [AUDA, 12-(3-Adamantan-1-yl-ureido)dodecanoic acid], the “MPTP-induced neurotoxicity, posttreatment” value ([1]; posttreatment) is listed as “did not attenuate” and the “MPTP-induced loss of TH-positive cells in the mouse SN, pretreatment” value ([1]; pretreatment) is listed as “attenuated”.
For O=C(Nc1ccc(OC(F)(F)F)c(F)c1)NC1CCN(C(=O)C2CCOCC2)CC1 [Compound 29, 1-(3-fluoro-4-(trifluoromethoxy)phenyl)-3-(1-(tetrahydro-2H-pyran-4-carbo-nyl)piperidin-4-yl)urea], the “crossing of the blood-brain barrier” value [2] is given as “cross the blood-brain barrier”.
With CN1CC=C(c2ccccc2)CC1 [MPTP, 1-methyl-4-phenyl-1,2,3,6-tetrahydropyridine] the “Level of 5(6)-EpETrE in the striatum” value [3] was 544.908 ± 19.111, the “Level of 6-keto-PGF1a in the striatum” value [3] was 20.015 ± 1.352 and the “Level of 8(9)-EpETrE in the striatum” value [3] was 19.048 ± 1.310. The “Level of 9(10)-EpOME in the striatum” value [3] was 6.641 ± 0.431, the “Level of 9,10,13-TriHOME in the striatum” value [3] was 33.635 ± 2.452 and the “Level of 9,10-DiHOME in the striatum” value [3] was 1.346 ± 0.158. The “Level of 9,12,13-TriHOME in the striatum” value [3] was 59.487 ± 4.168, the “Level of 9-HODE in the striatum” value [3] was 41.360 ± 3.045 and the “Level of 9-oxo-ODE in the striatum” value [3] was 46.977 ± 5.160. The “Level of 10(11)-EpDPE in the striatum” value [3] was 9.530 ± 0.829, the “Level of 11(12)-EpETrE in the striatum” value [3] was 61.583 ± 4.605 and the “Level of 11-HETE in the striatum” value [3] was 114.056 ± 5.188. For the same compound, the “Level of 12(13)-EpOME in the striatum” value [3] was 7.073 ± 0.689, the “Level of 12,13-DIHOME in the striatum” value [3] was 8.348 ± 1.710 and the “Level of 12-HETE in the striatum” value [3] was 136.621 ± 26.845. The “Level of 13-HODE in the striatum” value [3] was 58.399 ± 5.240, the “Level of 14(15)-EpETrE in the striatum” value [3] was 77.976 ± 11.479 and the “Level of 15,16-DiHODE in the striatum” value [3] was 3.667 ± 0.609. For the same compound, the “Level of 15-HETE in the striatum” value [3] was 129.113 ± 6.703, the “Level of 19,20-DiHDPE in the striatum” value [3] was 5.310 ± 0.523 and the “Level of EKODE in the striatum” value [3] was 23.007 ± 4.170. The “Level of PGD2 in the striatum” value [3] was 127.452 ± 4.968, the “Level of PGE2 in the striatum” value [3] was 13.830 ± 1.069 and the “Level of PGF2a in the striatum” value [3] was 160.704 ± 7.212. The “Level of TXB2 in the striatum” value [3] was 98.406 ± 4.740, the “phosphorylated α-synuclein/α-synuclein ratio in the striatum compared with control mice” value ([4]; MPTP 10 mg/kg×3) was “significant increase” and the “expression of GSH, iNOS, and SOD in the striatum” value ([4]; MPTP 10 mg/kg×3, 7 days after injection) was “alterations”. The “sEH protein in the striatum compared with control mice” value ([4]; MPTP 10 mg/kg×3, three or 7 days after injections) was “significant increase” and the “DAT and TH density in the striatum and TH-positive cell number in the SN compared with control mice” value [5] was “significant reductions”.
For CC[C@H](C)C(=O)N1CCC(NC(=O)Nc2ccc(OC(F)(F)F)c(F)c2)CC1 [compound 26], the “w.s. (water solubility)” value [6] is given as 1000 nM.
